The values below come from US20170333450A1, “COMPOSITIONS AND METHODS FOR TREATING HIV-ASSOCIATED COGNITIVE DYSFUNCTION” (The Regents of the University of California, priority 2014, published 2017).

One experiment deals with heme-oxygenase-1 (HO-1). The experiment in a line: HO-1 expression in HIV-infected and non-infected monocyte-derived macrophages (MDM) treated with test drug. The experiment is classed as cell-based, human. Particulars: Bardoxolone 5 nM or 50 nM, FIG. 1, Panel A. The text has this: (§1) FIG. 1 includes three panels identified as panels A, B, and C showing the results of preclinical testing of Bardoxolone in human monocyte-derived macrophages (MDM) and primary rodent neurons. […] “Mock 1” and “Mock 2” correspond to supernatant from untreated, uninfected macrophages run in parallel with treated macrophages. “Vehicle 1” and “Vehicle 2” correspond to supernatant from macrophages that received 0.05% DMSO and no additional drug. […] This effect is seen at Bardoxolone concentrations as low as 5 nM.
(§2) Monocyte-derived macrophages (MDM), obtained from uninfected donors, were pretreated with Bardoxolone (5 nM or 50 nM), Tempol, 4-hydroxy-2,2,6,6-tetramethylpiperidin-1-oxyl, (500 nM or 5 μM) or control (0.05% DMSO) for 24 hours prior to HIV infection. […] See FIG. 1, Panel A. This enhanced HO-1 expression decreases release of soluble neurotoxins from infected MDM. “Mock 1” and “Mock 2” correspond to supernatant from untreated, uninfected macrophage run in parallel with treated macrophages. “Vehicle 1” and “Vehicle 2” correspond to supernatant from macrophages that received 0.05% DMSO and no additional drug. Final concentration of DMSO in all treated wells is 0.05%.

For another experiment, the system named is HIV. The experiment in a line: HIV replication in MDM by reverse transcriptase (RT) activity in the culture supernatant. The experiment is classed as cell-based. The settings on record: FIG. 1, Panel B.
Source text: as §1, §2
Viral replication was determined via reverse, transcriptase (RT) expression in the cell culture supernatant. The RT assay measured incorporation of ^32P dT into long chain poly rA.

The subject of the next experiment is primary rodent neurons. The experiment in a line: Neurotoxicity of MDM culture supernatants on cultured primary rodent neurons (MAP-2 expression). It counts as cell-based. The settings on record: supernatants of HIV infected MDM on primary rodent neurons, FIG. 1, Panel C.
Source text: as §1
In addition, pre-treated neurons were exposed to the supernatants. Briefly, MDM culture supernatants are applied to cultured primary rodent neurons to test for MDM culture supernatant neurotoxicity. […] This is an indication of neuronal health.

The subject of experiment [1] is HIV-infected U1 monocytes. The experiment is described as follows: Viral expression (p24 gag) in HIV-infected U1 monocytes after LPS stimulation. The settings on record: 250 nM pre-treatment overnight, LPS activated; FIG. 2. It counts as cell-based. The protocol:
As such, methods for reducing viral replication may reduce risk for HAND. In another series of experiments, HIV-infected monocytes were exposed to a virus replication stimulus to determine if pretreatment with Bardoxolone inhibited viral replication. […] Here, a comparison of control cells with those pre-treated with either Tempol (1 μM) or Bardoxolone (250 nM) overnight was performed. The cells were then split into two conditions: LPS activated and non-LPS.

“Also recorded” adds a separate entry of the source.

As for `CC1(C)CC[C@]2(C(=O)O)CC[C@]3(C)[C@H](C(=O)C=C4[C@@]5(C)C=C(C#N)C(=O)C(C)(C)[C@@H]5CC[C@]43C)[C@@H]2C1` [Bardoxolone], the “expression of HO-1 in HIV-infected MDM” value with heme-oxygenase-1 (HO-1) (24 hours before HIV infection and throughout infection) is reported as “enhanced expression”. The “expression of HO-1 in non-infected MDM” value with heme-oxygenase-1 (HO-1) is on record as “enhanced expression”. Further, the “concentration at which reduction of HIV replication in MDM is seen” value with HIV (lowest concentration tested, RT activity) is listed as not above 5 nM. Moreover, the “HIV reverse transcriptase (RT) activity in the culture supernatants (HIV replication in MDM)” value in the experiment with HIV (pre-treatment 24 hours before HIV infection, 5 nM or 50 nM) is “reduced levels”. For the same molecule, in the experiment with primary rodent neurons, the “levels of MAP-2 in the neuron cultures” value is “maintenance or normal levels”. Besides, the “neurotoxicity of the MDM cell culture supernatants” value with primary rodent neurons (compared to vehicle control and to Tempol) is given as “dramatically reduced”. Besides, in experiment [1], the “amount of viral expression (p24 gag) following stimulation” value is listed as “reduced; also recorded: decreased”.
